Experiment [1] addresses Delta-type opioid receptor (Rattus norvegicus, UniProt P33533). The experiment can be described thus: Displacement of [3H]diprenorphine from rat DOR expressed in rat C6 cells after 1 hr by liquid scintillation counting analysis.
Experiment [2] has as its target T1, Mu-type opioid receptor (Rattus norvegicus, UniProt P33535). Put plainly: Agonist activity at rat MOR expressed in rat C6 cells assessed as stimulation of [35S]GTPgammaS binding after 1 hr by liquid scintillation counting analysis.
The target in experiment [3] is T1, Mu-type opioid receptor. The experiment can be described thus: Displacement of [3H]diprenorphine from rat MOR expressed in rat C6 cells after 1 hr by liquid scintillation counting analysis.

T1 sequence (P33535 whole entry): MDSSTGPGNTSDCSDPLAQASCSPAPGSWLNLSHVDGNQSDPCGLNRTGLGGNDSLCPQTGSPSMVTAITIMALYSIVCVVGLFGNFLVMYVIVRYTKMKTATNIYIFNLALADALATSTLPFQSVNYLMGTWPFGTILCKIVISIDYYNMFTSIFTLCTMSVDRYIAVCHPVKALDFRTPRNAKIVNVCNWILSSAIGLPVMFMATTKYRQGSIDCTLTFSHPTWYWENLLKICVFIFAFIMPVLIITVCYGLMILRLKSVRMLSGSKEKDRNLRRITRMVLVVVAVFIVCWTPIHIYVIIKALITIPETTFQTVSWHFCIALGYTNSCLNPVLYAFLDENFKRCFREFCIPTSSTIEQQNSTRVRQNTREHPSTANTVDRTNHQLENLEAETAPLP
Chain of Delta-type opioid receptor (P33533 whole entry): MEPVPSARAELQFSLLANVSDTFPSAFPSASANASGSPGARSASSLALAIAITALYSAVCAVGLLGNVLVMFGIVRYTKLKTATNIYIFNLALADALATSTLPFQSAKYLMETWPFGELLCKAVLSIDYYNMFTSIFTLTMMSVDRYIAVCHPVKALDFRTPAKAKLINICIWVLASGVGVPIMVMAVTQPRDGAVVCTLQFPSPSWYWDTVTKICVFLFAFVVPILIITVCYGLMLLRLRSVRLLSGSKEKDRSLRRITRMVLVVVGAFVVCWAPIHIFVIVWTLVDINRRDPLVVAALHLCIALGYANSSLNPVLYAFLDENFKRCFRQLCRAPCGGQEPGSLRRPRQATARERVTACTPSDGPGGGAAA

By Ki is commonly meant a measure of affinity in units of concentration, obtained from inhibition or displacement. Low values mean higher affinity, high ones lower affinity. A word on the EC50: it is the midpoint of the concentration-response curve. Regarding `Cc1cc(O)cc(C)c1C[C@H](N)C(=O)N[C@@H]1CCNc2ccc(CCc3ccccc3)cc21`, the Ki amounted to 8.9 nM in experiment [1] and 0.24 nM at Mu-type opioid receptor [3]. The EC50 at Mu-type opioid receptor [2] stood at 1.1 nM.

`Cc1cc(O)cc(C)c1C[C@H](N)C(=O)N[C@H]1CCNc2ccc(CCc3ccccc3)cc21`: the Ki in experiment [1] came to 120 nM; on Mu-type opioid receptor [3], 16 nM.

Values taken from BindingDB's records for doi:10.1021/jm400050y (University of Michigan, 2013).
